BindingDB's records for PubMed 9686407 (Sri International, 1998)

Experiments:
[1] = molecular target: 5-hydroxytryptamine receptor 5A (Rattus norvegicus, UniProt P35364)
[2] = molecular target: T1, 5-hydroxytryptamine receptor 2C (Rattus norvegicus, UniProt P08909)
T1 sequence (P08909 whole entry): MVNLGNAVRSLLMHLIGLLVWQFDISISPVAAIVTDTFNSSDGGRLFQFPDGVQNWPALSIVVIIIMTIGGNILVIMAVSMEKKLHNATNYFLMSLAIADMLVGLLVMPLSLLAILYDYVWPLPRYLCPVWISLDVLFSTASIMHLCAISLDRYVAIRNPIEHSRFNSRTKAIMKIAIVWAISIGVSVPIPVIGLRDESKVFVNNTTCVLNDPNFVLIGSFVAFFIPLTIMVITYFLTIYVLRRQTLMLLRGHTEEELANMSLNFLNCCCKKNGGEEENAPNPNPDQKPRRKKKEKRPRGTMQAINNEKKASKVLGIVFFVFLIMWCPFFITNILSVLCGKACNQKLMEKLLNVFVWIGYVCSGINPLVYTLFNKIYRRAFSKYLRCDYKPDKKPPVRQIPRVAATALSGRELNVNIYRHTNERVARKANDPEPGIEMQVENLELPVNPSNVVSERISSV

Mu-type opioid receptor = Mu-type opioid receptor (Cavia porcellus, UniProt P97266)
[3] = molecular target: Kappa-type opioid receptor (Cavia porcellus, UniProt P41144)
Kappa-type opioid receptor, sequence (P41144 whole entry): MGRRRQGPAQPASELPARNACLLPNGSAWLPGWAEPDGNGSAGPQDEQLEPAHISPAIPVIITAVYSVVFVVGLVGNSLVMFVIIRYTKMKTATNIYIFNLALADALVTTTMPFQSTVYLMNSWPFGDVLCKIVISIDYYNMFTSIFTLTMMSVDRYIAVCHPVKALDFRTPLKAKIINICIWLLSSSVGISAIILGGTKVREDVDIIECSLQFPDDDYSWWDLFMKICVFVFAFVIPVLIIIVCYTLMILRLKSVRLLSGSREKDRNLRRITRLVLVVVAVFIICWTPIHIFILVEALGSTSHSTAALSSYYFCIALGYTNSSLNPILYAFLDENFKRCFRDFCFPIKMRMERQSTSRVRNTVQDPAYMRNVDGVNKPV

Mu-type opioid receptor, sequence (P97266 whole entry): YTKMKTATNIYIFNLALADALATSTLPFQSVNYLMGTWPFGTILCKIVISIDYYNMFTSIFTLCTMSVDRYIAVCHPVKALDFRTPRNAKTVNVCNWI
5-hydroxytryptamine receptor 5A, sequence (P35364 whole entry): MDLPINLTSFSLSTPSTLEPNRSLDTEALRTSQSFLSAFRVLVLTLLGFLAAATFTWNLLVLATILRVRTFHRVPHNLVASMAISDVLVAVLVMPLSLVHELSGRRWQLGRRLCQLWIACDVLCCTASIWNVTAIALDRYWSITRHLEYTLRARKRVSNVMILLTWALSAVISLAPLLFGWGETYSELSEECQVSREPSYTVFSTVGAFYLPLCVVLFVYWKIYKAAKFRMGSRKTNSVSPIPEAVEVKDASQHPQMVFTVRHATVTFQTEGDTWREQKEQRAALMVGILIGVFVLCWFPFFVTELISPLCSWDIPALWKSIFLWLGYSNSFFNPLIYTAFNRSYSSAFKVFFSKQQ

Compound	Ki [1]	Ki [2]	Ki (Mu-type opioid receptor)	Ki [3]
NCC(O)c1ccc(O)c(O)c1 (stereo not drawn) [Noradrenaline,(+)]	> 10000 nM	> 10000 nM		
C[C@@H](NC(=O)[C@@H](N)Cc1ccc(O)cc1)C(=O)NCC(=O)N(C)[C@@H](Cc1ccccc1)C(=O)NCCO [[tyrosyl-3,5-3H(N)]-D-Ala2-Mephe4-glyol5-enkephalin]			1.1 nM	1840 nM
CN1CCC2(C)c3cc(O)ccc3CC1C2(C)CCC(=O)CCC1CCCC1 (stereo unspecified) [CAS_115077]			0.1 nM	0.2 nM
